Measurements published in PubChem BioAssay (NCI).
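Where inhibition never reached the appropriate level, the endpoint shown equals the highest concentration tested. Otherwise, values were interpolated linearly from a five-concentration, 48-hour dose response in 96-well plates. GI50 marks 50% less growth. TGI: total growth inhibition.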

Tests used:
Experiment in all cases: growth of human tumour cells (NCI), 48 h
HCC-2998 colon = system: HCC-2998 colon
SK-MEL-28 melanoma = system: SK-MEL-28 melanoma
COLO 205 colon = system: COLO 205 colon
SNB-19 CNS = system: SNB-19 CNS
MOLT-4 leukemia = system: MOLT-4 leukemia
786-0 renal = system: 786-0 renal
OVCAR-4 ovarian = system: OVCAR-4 ovarian
HCT-15 colon = system: HCT-15 colon
HOP-92 NSCLC = system: HOP-92 NSCLC
T-47D breast = system: T-47D breast
SR leukemia = system: SR leukemia
OVCAR-3 ovarian = system: OVCAR-3 ovarian
MDA-MB-435 = system: MDA-MB-435
LOX IMVI melanoma = system: LOX IMVI melanoma
HL-60(TB) leukemia = system: HL-60(TB) leukemia
MCF7 breast = system: MCF7 breast
OVCAR-5 ovarian = system: OVCAR-5 ovarian
U251 CNS = system: U251 CNS
PC-3 prostate = system: PC-3 prostate
MDA-MB-231 breast = system: MDA-MB-231 breast
NCI-H23 lung = system: NCI-H23 lung
NCI-H460 lung = system: NCI-H460 lung
NCI-H522 lung = system: NCI-H522 lung
HCT-116 colon = system: HCT-116 colon
TK-10 renal = system: TK-10 renal
RPMI-8226 leukemia = system: RPMI-8226 leukemia
SK-OV-3 ovarian = system: SK-OV-3 ovarian
ACHN renal = system: ACHN renal
UO-31 renal = system: UO-31 renal
UACC-257 melanoma = system: UACC-257 melanoma
K-562 leukemia = system: K-562 leukemia
NCI/ADR-RES ovarian = system: NCI/ADR-RES ovarian
A549 NSCLC = system: A549 NSCLC
SF-539 CNS = system: SF-539 CNS
MALME-3M melanoma = system: MALME-3M melanoma
A498 renal = system: A498 renal
SF-295 CNS = system: SF-295 CNS
RXF 393 renal = system: RXF 393 renal
HS 578T breast = system: HS 578T breast
HT29 colon = system: HT29 colon
DU-145 prostate = system: DU-145 prostate
SF-268 CNS = system: SF-268 CNS
SN12C renal = system: SN12C renal
SK-MEL-5 melanoma = system: SK-MEL-5 melanoma
EKVX NSCLC = system: EKVX NSCLC
KM12 colon = system: KM12 colon
SK-MEL-2 melanoma = system: SK-MEL-2 melanoma
SNB-75 CNS = system: SNB-75 CNS
OVCAR-8 ovarian = system: OVCAR-8 ovarian
HOP-62 NSCLC = system: HOP-62 NSCLC
SW-620 colon = system: SW-620 colon
IGROV1 ovarian = system: IGROV1 ovarian
BT-549 breast = system: BT-549 breast
NCI-H226 lung = system: NCI-H226 lung
CCRF-CEM leukemia = system: CCRF-CEM leukemia
UACC-62 melanoma = system: UACC-62 melanoma
CAKI-1 renal = system: CAKI-1 renal
M14 melanoma = system: M14 melanoma

Q: Which results are given for `COc1ccc([C@@H]2[C@@H](O)C(=O)N2c2cc(OC)c(OC)c(OC)c2)cc1`?
A: GI50 (HCC-2998 colon): 98.2 nM; TGI (HCC-2998 colon): 10000 nM; TGI (SK-MEL-28 melanoma): > 100000 nM; GI50 (COLO 205 colon): 69.6 nM; TGI (COLO 205 colon): 173 nM; GI50 (SNB-19 CNS): 120 nM; TGI (SNB-19 CNS): > 100000 nM; GI50 (MOLT-4 leukemia): 101 nM; TGI (MOLT-4 leukemia): > 100000 nM; GI50 (786-0 renal): 91.6 nM; TGI (786-0 renal): > 100000 nM; GI50 (OVCAR-4 ovarian): 5860 nM; TGI (OVCAR-4 ovarian): > 100000 nM; GI50 (HCT-15 colon): 72.7 nM; TGI (HCT-15 colon): > 100000 nM; GI50 (HOP-92 NSCLC): > 44600 nM; TGI (HOP-92 NSCLC): > 100000 nM; GI50 (T-47D breast): 19000 nM; TGI (T-47D breast): > 100000 nM; GI50 (SR leukemia): 34.3 nM; TGI (SR leukemia): > 100000 nM; GI50 (OVCAR-3 ovarian): 34.5 nM; TGI (OVCAR-3 ovarian): 327 nM; GI50 (MDA-MB-435): 28.1 nM; TGI (MDA-MB-435): 83.7 nM; GI50 (LOX IMVI melanoma): 47.3 nM; TGI (LOX IMVI melanoma): > 100000 nM; GI50 (HL-60(TB) leukemia): 30.9 nM; TGI (HL-60(TB) leukemia): 126 nM; GI50 (MCF7 breast): 35.1 nM; TGI (MCF7 breast): > 100000 nM; GI50 (OVCAR-5 ovarian): 61.3 nM; TGI (OVCAR-5 ovarian): > 100000 nM; GI50 (U251 CNS): 40.4 nM; TGI (U251 CNS): > 100000 nM; GI50 (PC-3 prostate): 85.6 nM; TGI (PC-3 prostate): > 100000 nM; GI50 (MDA-MB-231 breast): 55.8 nM; TGI (MDA-MB-231 breast): > 100000 nM; GI50 (NCI-H23 lung): 63 nM; TGI (NCI-H23 lung): > 100000 nM; GI50 (NCI-H460 lung): 59.3 nM; TGI (NCI-H460 lung): > 100000 nM; GI50 (NCI-H522 lung): 24.8 nM; TGI (NCI-H522 lung): 76.7 nM; GI50 (HCT-116 colon): 38.6 nM; TGI (HCT-116 colon): > 100000 nM; GI50 (TK-10 renal): 32900 nM; TGI (TK-10 renal): > 100000 nM; GI50 (RPMI-8226 leukemia): 44.8 nM; TGI (RPMI-8226 leukemia): 5610 nM; GI50 (SK-OV-3 ovarian): 147 nM; TGI (SK-OV-3 ovarian): > 57100 nM; GI50 (ACHN renal): 72.3 nM; TGI (ACHN renal): > 100000 nM; GI50 (UO-31 renal): 65.9 nM; TGI (UO-31 renal): > 100000 nM; GI50 (UACC-257 melanoma): 5350 nM; TGI (UACC-257 melanoma): > 100000 nM; GI50 (K-562 leukemia): 33.9 nM; TGI (K-562 leukemia): > 100000 nM; GI50 (NCI/ADR-RES ovarian): 72.5 nM; TGI (NCI/ADR-RES ovarian): > 100000 nM; GI50 (A549 NSCLC): 92.4 nM; TGI (A549 NSCLC): > 100000 nM; GI50 (SF-539 CNS): 30.5 nM; TGI (SF-539 CNS): > 100000 nM; GI50 (MALME-3M melanoma): 105 nM; TGI (MALME-3M melanoma): > 100000 nM; GI50 (A498 renal): 11300 nM; TGI (A498 renal): > 88700 nM; GI50 (SF-295 CNS): 37.8 nM; TGI (SF-295 CNS): > 100000 nM; GI50 (RXF 393 renal): 26 nM; TGI (RXF 393 renal): > 100000 nM; GI50 (HS 578T breast): 41 nM; TGI (HS 578T breast): > 100000 nM; GI50 (HT29 colon): 32.9 nM; TGI (HT29 colon): 175 nM; GI50 (DU-145 prostate): 76.1 nM; TGI (DU-145 prostate): > 100000 nM; GI50 (SF-268 CNS): 214 nM; TGI (SF-268 CNS): > 100000 nM; GI50 (SN12C renal): 124 nM; TGI (SN12C renal): > 100000 nM; GI50 (SK-MEL-5 melanoma): 45.2 nM; TGI (SK-MEL-5 melanoma): 232 nM; GI50 (EKVX NSCLC): 79.9 nM; TGI (EKVX NSCLC): > 100000 nM; GI50 (KM12 colon): 41.3 nM; TGI (KM12 colon): > 100000 nM; GI50 (SK-MEL-2 melanoma): 135 nM; TGI (SK-MEL-2 melanoma): > 100000 nM; GI50 (SNB-75 CNS): 46.5 nM; TGI (SNB-75 CNS): > 100000 nM; GI50 (OVCAR-8 ovarian): 37.6 nM; TGI (OVCAR-8 ovarian): > 100000 nM; GI50 (HOP-62 NSCLC): 75.8 nM; TGI (HOP-62 NSCLC): > 100000 nM; GI50 (SW-620 colon): 50.4 nM; TGI (SW-620 colon): > 100000 nM; GI50 (IGROV1 ovarian): 57.7 nM; TGI (IGROV1 ovarian): > 100000 nM; GI50 (BT-549 breast): 94.1 nM; TGI (BT-549 breast): 2430 nM; GI50 (NCI-H226 lung): 525 nM; TGI (NCI-H226 lung): > 100000 nM; GI50 (CCRF-CEM leukemia): 41.3 nM; GI50 (UACC-62 melanoma): 41.7 nM; TGI (UACC-62 melanoma): > 100000 nM; GI50 (CAKI-1 renal): 48.6 nM; TGI (CAKI-1 renal): > 33800 nM; GI50 (M14 melanoma): 42.3 nM; TGI (M14 melanoma): > 100000 nM
